Where a chain is given by its changes, count along the chain named. The source made the active and inactive calls. No cut-off for these calls is given here.

Assay [1] relates to T1, General amino-acid permease GAP1 (Saccharomyces cerevisiae), P19145 [S398C].
T1 sequence (whole entry): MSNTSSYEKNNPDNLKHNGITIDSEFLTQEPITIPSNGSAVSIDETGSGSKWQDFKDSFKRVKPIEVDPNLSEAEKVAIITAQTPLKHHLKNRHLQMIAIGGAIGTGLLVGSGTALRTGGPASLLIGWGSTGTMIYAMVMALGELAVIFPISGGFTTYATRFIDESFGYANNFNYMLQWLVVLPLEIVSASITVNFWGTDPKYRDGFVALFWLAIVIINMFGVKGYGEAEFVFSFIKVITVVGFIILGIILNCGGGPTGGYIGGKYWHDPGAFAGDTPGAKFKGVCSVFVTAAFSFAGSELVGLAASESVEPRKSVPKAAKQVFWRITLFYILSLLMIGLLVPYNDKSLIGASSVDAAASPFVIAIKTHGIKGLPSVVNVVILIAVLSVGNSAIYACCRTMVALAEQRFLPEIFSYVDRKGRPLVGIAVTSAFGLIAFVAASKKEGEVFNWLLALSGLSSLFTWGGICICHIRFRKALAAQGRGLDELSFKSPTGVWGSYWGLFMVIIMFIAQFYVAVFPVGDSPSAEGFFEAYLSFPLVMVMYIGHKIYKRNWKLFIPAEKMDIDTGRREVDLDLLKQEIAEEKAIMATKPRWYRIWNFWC
Nature of the assay: Induction of yeast Gap1 S398C mutant-mediated trehalose activation at 10 mM.

For assay [2], the system named is T2, General amino-acid permease GAP1 (Saccharomyces cerevisiae), P19145 [T400C].
T2 sequence (whole entry): T1 sequence (whole entry) with C398S, T400C
Nature of the assay: Induction of yeast Gap1 T400C mutant-mediated amino acid uptake at 2 mM in presence of 10 mM MTSEA treated before compound addition.

Assay [3] concerns T3, General amino-acid permease GAP1 (Saccharomyces cerevisiae), P19145 [V381C].
T3 sequence (whole entry): T1 sequence (whole entry) with V381C, C398S
Nature of the assay: Activation of yeast Gap1 V381C mutant-mediated amino acid uptake at 10 mM.

The subject of assay [4] is T4, General amino-acid permease GAP1 (Saccharomyces cerevisiae), P19145 [I384C].
T4 sequence (whole entry): T1 sequence (whole entry) with I384C, C398S
Nature of the assay: Induction of yeast Gap1 I384C mutant-mediated amino acid uptake at 2 mM in presence of 10 mM MTSEA treated before compound addition.

As for `NC(=O)NCCC[C@H](N)C(=O)O`, the result in assay [1] and in assay [3] was inactive. Moreover, the outcome in assay [2] and in assay [4] was Active.
